According to patent US9670519B2, “Methods for reducing accumulation of lactate during culturing and method for producing polypeptide” (Biocon Limited, priority 2011, dated 2017):
Where two headings read alike, the source gives them in different places.

Legend:
[1] = tested on: Chinese Hamster Ovary (CHO) cells genetically engineered to produce the Anti VEGF-A antibody; details: for Residual Lactate: fedbatch; for further reduction in the accumulation of lactate in presence of said salt (versus control) / reduction of the accumulation of lactate in the media with the added salt: over the run till 7th day
Method: (§1) In another embodiment of the present disclosure, the level of lactate in the medium is analyzed using the device YSI 7100 MBS Analyzer.
(§2) The level of lactate is analyzed for all the following experiments in the below examples by the use of the YSI 7100 MBS Analyzer. The pH for all the below experiments as recited in the following examples are maintained between pH 6.85-7.2. The level of Oxygen is also maintained by the oxygen levels are maintained by agitation in the shaker incubator. In all the below mentioned examples, the concentration of the added salt is the concentration of the salt as present in the medium. The temperature can be suitably varied, based on the nature of the cells used and other related parameters.
(§3) The cell culturing was performed in fedbatch mode. In the cell culture, the mammalian host cells used were Chinese Hamster Ovary (CHO) cells and HyClone CDM4NS0 culture medium was supplied initially. The CHO cells were genetically engineered to produce the Anti VEGF-A antibody. The copper sulphate pentahydrate salt was added in the medium at a concentration of 0.4 mM. In contrast, there was no addition of any copper salt in the control medium. The production fermentation run started with an initial cell count of 0.3-0.45×10^6 cells/ml at 37±1° C., the first 3-4 days were dedicated to grow the cells in batch phase. In the next step, the temperature is lowered to 31+/−1° C. and the run is continued till 7th day. […] The produced Anti VEGF-A antibody was then collected from the media using the technique of Affinity Chromatography.
as §3, with “fedbatch.” for “fedbatch mode.”, “zinc” for “copper”, “hepta hydrate” for “pentahydrate”
as §3, with “fedbatch mode is employed.” for “fedbatch mode.”, “VEGF-A Antibody.” for “VEGF-A antibody.”, “salt is also” for “salt was”, “of 0.2” for “of 0.4”, “to 31±1°” for “to 31+/−1°”, “VEGF-A Antibody” for “VEGF-A antibody”
The cell culturing was performed in fedbatch mode. In the cell culture, the mammalian host cell used were Chinese Hamster Ovary (CHO) cells and HyClone CDM4NS0 culture medium was supplied initially. The CHO cells were genetically engineered to produce the Anti VEGF-A Antibody. The zinc sulphate hepta hydrate salt is also added in the medium at a concentration of 0.2 mM. In contrast, there was no addition of any zinc salt in the control medium.

[2] = tested on: Chinese Hamster Ovary (CHO) cells genetically engineered to produce the Anti Her-2 antibody; details: for Residual Lactate: salt 0.4 mM in HyClone CDM4NS0 medium, fedbatch; for further reduction in the accumulation of lactate in presence of said salt (versus control) / reduction of the accumulation of lactate in the media with the added salt: salt 0.4 mM, over the run till 7th day
Method: as §1, §2
as §3, with “Her-2” for “VEGF-A”
as §3, with “Her-2” for “VEGF-A”, “zinc” for “copper”, “hepta hydrate” for “pentahydrate”

[3] = tested on: Chinese Hamster Ovary (CHO) cells genetically engineered to produce the Anti TNF antibody; details: for Residual Lactate: salt 0.4 mM in HyClone CDM4NS0 medium, fedbatch; for further reduction in the accumulation of lactate in presence of said salt (versus control) / reduction of the accumulation of lactate in the media with the added salt: salt 0.4 mM, over the run till 7th day
Method: as §1, §2
as §3, with “Anti TNF” for “Anti VEGF-A”, “salt is also” for “salt was”, “to 31±1°” for “to 31+/−1°”
(§4) The cell culturing was performed in a fedbatch mode. In the cell culture, the mammalian host cells used were Chinese Hamster Ovary (CHO) cells and HyClone CDM4NS0 culture medium was supplied initially. The CHO cells were genetically engineered to produce the Anti TNF antibody. The zinc sulphate hepta hydrate salt is also added in the medium at a concentration of 0.4 mM. In contrast, there was no addition of any zinc salt in the control medium. The production fermentation run started with an initial cell count of 0.3-0.45×10^6 cells/ml at 37±1° C., the first 3-4 days were dedicated to grow the cells in batch phase. In the next step, the temperature is lowered to 31±1° C. and the run is continued till 7th day. […] The produced Anti TNF antibody was then collected from the media using the technique of Affinity Chromatography.

[4] = tested on: Chinese Hamster Ovary (CHO) cells genetically engineered to produce the Anti CD6 Antibody; details: for Residual Lactate: salt 0.4 mM in HyClone CDM4NS0 medium, fedbatch
Method: as §1, §2
as §4, with “in” for “in a”, “cellculture,” for “cell culture,”, “CD6 Antibody.” for “TNF antibody.”, “is” for “is also”, “CD6 Antibody” for “TNF antibody”

[5] = salt 0.2 mM in HyClone CDM4NS0 medium, age 72 hours
[6] = salt 0.2 mM in HyClone CDM4NS0 medium, age 96 hours
[7] = salt 0.2 mM in HyClone CDM4NS0 medium, age 120 hours
[8] = salt 0.2 mM in HyClone CDM4NS0 medium, age 144 hours
[9] = salt 0.2 mM in HyClone CDM4NS0 medium, age 168 hours
[10] = salt 0.4 mM in HyClone CDM4NS0 medium, age 72 hours
[11] = salt 0.4 mM in HyClone CDM4NS0 medium, age 96 hours
[12] = salt 0.4 mM in HyClone CDM4NS0 medium, age 120 hours
[13] = salt 0.4 mM in HyClone CDM4NS0 medium, age 144 hours
[14] = salt 0.4 mM in HyClone CDM4NS0 medium, age 168 hours
[15] = salt 0.4 mM, over the run till 7th day

## O.O.O.O.O.O=S(=O)([O-])[O-].[Cu+2] [Copper salt, copper sulphate pentahydrate]
[1]; [5]
  Residual Lactate: 23.3 mM
[1]; [6]
  Residual Lactate: 14.9 mM
[1]; [7]
  Residual Lactate: 7.9 mM
[1]; [8]
  Residual Lactate: 5.8 mM
[1]; [9]
  Residual Lactate: 2.7 mM
[1]; salt 0.2 mM
  further reduction in the accumulation of lactate in presence of said salt (versus control): about 6.17%
  reduction of the accumulation of lactate in the media with the added salt: about 85.40%
[1]; [10]
  Residual Lactate: 16 mM
[1]; [11]
  Residual Lactate: 14.8 mM
[1]; [12]
  Residual Lactate: 5.9 mM
[1]; [13]
  Residual Lactate: 3.4 mM
[1]; [14]
  Residual Lactate: 2 mM
[1]; salt 0.4 mM
  further reduction in the accumulation of lactate in presence of said salt (versus control): about 26.5%
  reduction of the accumulation of lactate in the media with the added salt: about 87.5%
[2]; age 72 hours
  Residual Lactate: 16 mM
[2]; age 96 hours
  Residual Lactate: 11.8 mM
[2]; age 120 hours
  Residual Lactate: 7.4 mM
[2]; age 144 hours
  Residual Lactate: 6.9 mM
[2]; age 168 hours
  Residual Lactate: 5.6 mM
[2]
  further reduction in the accumulation of lactate in presence of said salt (versus control): about 14.5%
  reduction of the accumulation of lactate in the media with the added salt: about 65%
[3]; age 72 hours
  Residual Lactate: 20.4 mM
[3]; age 96 hours
  Residual Lactate: 20.3 mM
[3]; age 120 hours
  Residual Lactate: 16.3 mM
[3]; age 144 hours
  Residual Lactate: 13.2 mM
[3]; age 168 hours
  Residual Lactate: 14.6 mM
[3]
  further reduction in the accumulation of lactate in presence of said salt (versus control): about 13.05%
  reduction of the accumulation of lactate in the media with the added salt: about 28.43%

## O.O.O.O.O.O.O.O=S(=O)([O-])[O-].[Zn+2] [Zinc salt, zinc sulphate hepta hydrate]
[1]; [5]
  Residual Lactate: 23.3 mM
[1]; [6]
  Residual Lactate: 16.3 mM
[1]; [7]
  Residual Lactate: 10 mM
[1]; [8]
  Residual Lactate: 5.9 mM
[1]; [9]
  Residual Lactate: 3.4 mM
[1]; salt 0.2 mM
  further reduction in the accumulation of lactate in presence of said salt (versus control): about 9.18%
  reduction of the accumulation of lactate in the media with the added salt: about 88.41%
[1]; [10]
  Residual Lactate: 16.6 mM
[1]; [11]
  Residual Lactate: 14.7 mM
[1]; [12]
  Residual Lactate: 7.6 mM
[1]; [13]
  Residual Lactate: 6.2 mM
[1]; [14]
  Residual Lactate: 4.5 mM
[1]; salt 0.4 mM
  further reduction in the accumulation of lactate in presence of said salt (versus control): about 11.57%
  reduction of the accumulation of lactate in the media with the added salt: about 72.89%
[2]; age 72 hours
  Residual Lactate: 16 mM
[2]; age 96 hours
  Residual Lactate: 11.8 mM
[2]; age 120 hours
  Residual Lactate: 7.4 mM
[2]; age 144 hours
  Residual Lactate: 6.9 mM
[2]; age 168 hours
  Residual Lactate: 5.6 mM
[2]
  further reduction in the accumulation of lactate in presence of said salt (versus control): about 30.38%
  reduction of the accumulation of lactate in the media with the added salt: about 64.88%
[4]; age 72 hours
  Residual Lactate: 18 mM
[4]; age 96 hours
  Residual Lactate: 11.2 mM
[4]; age 120 hours
  Residual Lactate: 6.2 mM
[4]; age 144 hours
  Residual Lactate: 3 mM
[4]; age 168 hours
  Residual Lactate: 3.2 mM
[4]; [15]
  further reduction in the accumulation of lactate in presence of said salt (versus control): about 11.67%
  reduction of the accumulation of lactate in the media with the added salt: about 82.22%
[3]; age 96 hours
  Residual Lactate: 19.6 mM
[3]; age 120 hours
  Residual Lactate: 16.4 mM
[3]; age 144 hours
  Residual Lactate: 13.8 mM
[3]; age 168 hours
  Residual Lactate: 15 mM
[3]
  further reduction in the accumulation of lactate in presence of said salt (versus control): about 6.09%
  reduction of the accumulation of lactate in the media with the added salt: about 23.46%
